We go through one compound from patent publication US20140336259A1, “PHENOLIC COMPOUNDS WITH ANTIOXIDANT AND ANTI-CANCER PROPERTIES, ANALOGS AND SYNTHESIS THEREOF” (priority 2011, published 2014).

Structures are written as SMILES. Converted amounts (≈) assume the structure as drawn. “And” between values parts separate entries of the source, which are not always exact repeats. Equal values may be shown once. Read-outs that look alike come from different tables or passages of the source.

A word on the IC50: it is the point on the concentration scale where inhibition reaches its midpoint.

Data set [1] concerns MCF-7 (estrogen receptor (ER) positive) human breast cancer cells. Kind of data set: MTS antiproliferative/cytotoxicity assay on MCF-7 cells. Conditions: for MCF-7 IC50: 72 h treatment, mean ± S.D., vs DMSO 0.5% control.
Data set [2] relates to MDA-MB-231 (ER negative) human breast cancer cells. Kind of data set: MTS antiproliferative/cytotoxicity assay on MDA-MB-231 cells. Type of data set: cell-based. As to conditions: Homo sapiens.
The next data set deals with colon cancer cell lines. As to conditions: Gonzales-Sarrias et al. 2011; cited from earlier work.

Consider `COc1cc(C(CO)C(c2ccc(O)c(OC)c2)c2ccc(O)c(OC)c2)ccc1O` (centres unmarked) [QUEBECOL, 4,4′,4″-(3-Hydroxypropane-1,1,2-triyl)tris(2-methoxyphenol)], for which, in data set [1] (24 h), the “IC50 MCF-7 24 h” value came to 65.9 µg/mL (≈ 155 µM). The “IC50 MCF-7 48 h” value in data set [1] (48 h) came to 53.5 µg/mL (≈ 125 µM). For the same compound, the “MCF-7 IC50” value in data set [1] and in data set [1] (listed as QUEBECOL Natural) was 46.3 ± 2.1 µg/mL throughout. In addition, the “IC50 MCF-7 96 h” value in data set [1] (96 h) came to 37.4 µg/mL (≈ 87.7 µM). Besides, the concentration for half-maximal inhibition (IC50) amounted to 155 µM in data set [1] (read-out: IC50 MCF-7 24 h, 24 h, combination study Table 5A, T starting 50 μM, Q starting 200 μM); 155 µM in data set [1] (read-out: IC50 MCF-7 24 h, 24 h, listed as QUEBECOL Natural); 126 µM in data set [1] (read-out: IC50 MCF-7 48 h, 48 h, combination study Table 5A); 126 µM in data set [1] (read-out: IC50 MCF-7 48 h, 48 h, listed as QUEBECOL Natural); 109 µM in data set [1] (read-out: IC50 MCF-7 72 h, 72 h, combination study Table 5A); 109 µM in data set [1] (read-out: IC50 MCF-7 72 h, 72 h, listed as QUEBECOL Natural). Moreover, the IC50 in data set [1] (read-out: IC50 MCF-7 96 h, 96 h, combination study Table 5A) is 87.9 µM; in data set [1] (read-out: IC50 MCF-7 96 h, 96 h, listed as QUEBECOL Natural) it was 87.9 µM; in data set [2] (MDA-MB-231, 24 h, 24 h, combination study Table 5B, T starting 50 μM, Q starting 200 μM, read-out: IC50 MDA-MB-231 24 h) it was 166 µM; in data set [2] (MDA-MB-231, 24 h, 24 h, read-out: IC50 MDA-MB-231 24 h), 70.9 µg/mL and 166 µM; in data set [2] (MDA-MB-231, 48 h, read-out: IC50 MDA-MB-231 48 h, 48 h), 57 µg/mL and 134 µM; in data set [2] (MDA-MB-231, 48 h, read-out: IC50 MDA-MB-231 48 h, 48 h, combination study Table 5B), 134 µM. Further, the IC50 was 119 µM in data set [2] (MDA-MB-231, 72 h, 72 h, combination study Table 5B, read-out: IC50 MDA-MB-231 72 h); 50.7 µg/mL and 119 µM in data set [2] (MDA-MB-231, 72 h, 72 h, read-out: IC50 MDA-MB-231 72 h); 50.7 ± 2.4 µg/mL in data set [2] (MDA-MB-231, 72 h, 72 h treatment, mean ± S.D., vs DMSO 0.5% control, read-out: MDA-MB-231 IC50); 102 µM in data set [2] (MDA-MB-231, 96 h, 96 h, combination study Table 5B, read-out: IC50 MDA-MB-231 96 h); 43.3 µg/mL and 102 µM in data set [2] (MDA-MB-231, 96 h, 96 h, read-out: IC50 MDA-MB-231 96 h). The “cytotoxic effect on colon cancer cell lines” value with colon cancer cell lines is on record as “cytotoxic effect”.
